The values that follow come from patent US20220054463A1, “METHODS OF TREATING ANEURYSMS” (University of Pittsburgh-of the Commonwealth System of …, priority 2020, published 2022).

For assay [1], the system named is murine intracranial aneurysms. In words: Mouse intracranial aneurysm model (aneurysm formation). Format: in vivo, mouse (C57BL/6). From the text:
Mouse Intracranial Aneurysm Model. Murine intracranial aneurysms were created in female 8-12 week-old C57BL/6 mice (Charles River Laboratories, Wilmington, Mass.) using a method described previously (Hosaka et al., Journal of neurointerventional surgery. 2014; 6:474-9). Briefly, the left common carotid artery and the right renal artery were ligated to induce hypertension. One week later, an Alzet micro-osmotic pump model 1004 (DURECT Corp, Cupertino, Calif.) was implanted subdermally to deliver Angiotensin II (Bachem AG, Switzerland) at 1000 ng/kg/min. 10 μL of 0.8% porcine elastase (Worthington Biochemical Corp, Lakewood, N.J.) in normal saline was injected into the right basal cistern using stereotactic coordinates: 1.2 mm rostral of bregma, 0.7 mm lateral of midline and 5.3 mm ventral of the dorsal aspect of the skull. The animals were fed a hypertensive diet with 8% NaCl and 0.12% BAPN (TEKLAD). Clopidogrel was administered at 1 mg/kg in normal saline via intraperitoneal injection every two days. Reparixin was administered at 10 mg/kg in normal saline via intraperitoneal injection every two days. PBS-treated animals received 10 μL injection of phosphate buffered saline subcutaneously every two days. […] Each Circle of Willis was examined by a blinded observer and aneurysm formation was recorded (yes/no). […]

Assay [2] has as its system cytokines (inflammatory profile). In words: Cytokine arrays in aneurysm-induced cerebral vasculature. The format is in vivo, mouse. As to conditions: aneurysmal mice, 2 versus 3 weeks; FIG. 5. From the text: Mouse Intracranial Aneurysm Model. Murine intracranial aneurysms were created in female 8-12 week-old C57BL/6 mice (Charles River Laboratories, Wilmington, Mass.) using a method described previously (Hosaka et al., Journal of neurointerventional surgery. 2014; 6:474-9). Briefly, the left common carotid artery and the right renal artery were ligated to induce hypertension. One week later, an Alzet micro-osmotic pump model 1004 (DURECT Corp, Cupertino, Calif.) was implanted subdermally to deliver Angiotensin II (Bachem AG, Switzerland) at 1000 ng/kg/min. 10 μL of 0.8% porcine elastase (Worthington Biochemical Corp, Lakewood, N.J.) in normal saline was injected into the right basal cistern using stereotactic coordinates: 1.2 mm rostral of bregma, 0.7 mm lateral of midline and 5.3 mm ventral of the dorsal aspect of the skull. The animals were fed a hypertensive diet with 8% NaCl and 0.12% BAPN (TEKLAD). Clopidogrel was administered at 1 mg/kg in normal saline via intraperitoneal injection every two days. Reparixin was administered at 10 mg/kg in normal saline via intraperitoneal injection every two days. PBS-treated animals received 10 μL injection of phosphate buffered saline subcutaneously every two days. […] In addition, cytokines were analyzed in human cerebral aneurysm, superficial temporal artery, and peripheral intravenous blood specimens that were collected at the time of surgery.

`CC(C)Cc1ccc([C@@H](C)C(=O)NS(C)(=O)=O)cc1` [reparixin] gave a mice developing aneurysms in assay [1] (10 mg/kg reparixin, PBS:DMSO treated control mice 59%, p=0.0163, FIG. 3B) of 14%. For the same compound, the “attenuation of inflammatory profile (temporal dynamics of 96 cytokines)” value in assay [2] was “robust anti-inflammatory effects”.
Consider `COC(=O)[C@H](c1ccccc1Cl)N1CCc2sccc2C1` [clopidogrel], for which the mice developing aneurysms in assay [1] (1 mg/kg clopidogrel, controls 59%, p<0.001, FIG. 3A) was 0%. Further, the “attenuation of inflammatory profile (temporal dynamics of 96 cytokines)” value in assay [2] is listed as “moderate response”.
